Measured values published in patent US7579474B2, “Substituted piperidines as modulators of dopamine neurotransmission” (NSAB, Filial AF Neurosearch AB, Sverige, priority 2004, dated 2009).
Read-outs that look alike come from different tables or passages of the source.

Legend:
[1] = system: amphetamine-induced hyper-locomotion; assay: Reduction of amphetamine-induced hyper-locomotion; assay type: in vivo, rat; conditions: rats pretreated with d-amphetamine 1.5 mg/kg i.p., test compound s.c., last 45 minutes of one hour, range covers 95% of fits
Description: In this model, dopaminergic neurotransmission is increased by systemic administration of d-amphetamine at a dose that is sufficiently high to produce a large increase in locomotor activity. The ability of a compound to antagonize this hyperactivity reflects anti-dopaminergic properties, which are part of the dopaminergic stabiliser profile.
Photobeam sensors were spaced 2.5 cm apart.
For most compounds, the evaluation is based on 16 amphetamine pre-treated animals over the dose range 0, 11, 33 and 100 μmol/kg s.c. in one single experiment, with complementary doses in separate experiments. Calculations are based on distance during the last 45 minutes of one hour of measurement. The distances are normalised to amphetamine-control and fitted by least square minimization to the function “End-(End-Control)/(1+(dose/ED50)^Slope)”. […] To estimate confidence levels for the parameters, the fit is repeated 100 times with a random evenly distributed squared weight (0 to 1) for every measurement value. Presented ED50-ranges cover 95% of these values.

[2] = assay type: in vitro ADME; conditions: rat, microsomes, 0.25 h, pH 7.4
Method: Rat liver microsomes were isolated as described by Förlin (1980) Effects of Clophen A50, 3-methylcholantrene, pregnenolone-16aq-carbonitrile and Phenobarbital on the hepatic microsomal cytochrome P-450-dependent monooxygenaser system in rainbow trout, salmo garirdneri, of different age and sex. Tox Appl Pharm. 54(3) 420-430, with minor modifications e.g. 3 mL/g liver of a 0.1 M Na/K*PO4 buffer with 0.15 M KCl, pH 7.4, (buffer 1) was added before homogenisation, the homogenate was centrifuged for 20 minutes instead of 15, the supernatant was ultracentrifuged at 100.000 g instead of 105.000 g and the pellet from the ultracentrifugation was resuspended in 1 mL/g liver of 20% v/v 87% glycerol in buffer 1.
1 μL of, 0.2 or 1 mM test substance diluted in water and 10 μL 20 mg/mL rat liver micro-some were mixed with 149 μL 37° C. buffer 1 and the reaction was started by addition of 40 μL 4.1 mg/mL NADPH. After 0 or 15 minutes incubation at 37° C. in a heating block (LAB-LINE, MULTI-BLOK Heater or lab4you, TS-100 Thermo shaker at 700 rpm) the reaction was stopped by addition of 100 μL pure acetonitrile. The protein precipitation was then removed by rejecting the pellet after centrifugation at 10.000 g for 10 minutes (Heraeus, Biofuge fresco) in 4° C. The test compound was analysed using HPLC-MS (Hewlett-Packard 1100MSD Series) with a Zorbax SB-C18 column (2.1*150 mm, 5 μm) using 0.03% formic acid and acetonitrile as mobile phase (gradient) or a Zorbax Eclipse XDB-C18 (3*75 mm, 3.5 μm) using 0.03% acetic acid and acetonitrile as mobile phase (gradient). The 15 min turnover was calculated as the fraction of test compound eliminated after 15 minutes, expressed in percent of 0 min levels, ie 100*[conc test compound at 0 min−concentration at 15 min]/conc at 0 min.
Preparation of liver microsomes was performed as described in Förlin (1980). Protocols for incubation with liver microsomes are referred in Crespi et Stresser (2000), and Renwick et al (2001).

[3] = Oral bioavailability in rat; assay type: in vivo
Method: Experiments are performed 24 hours after implantation of arterial and venous catheters. Test compound is administered orally at 12.5 μmol/kg or intravenously at 5 μmol/kg using the venous catheters, n=3 per group. Arterial blood samples are then taken during […] at 0, 3, 9, 27, 60, 120, 180, 240, 300 and, 360 minutes after administration of the test compound. The oral bioavailability was calculated as the ratio of the AUC (Area under curve) obtained after oral administration over the AUC obtained after intravenous administration for each rat. The parameter AUC was calculated according to the following: AUC: the area under the plasma concentration versus time curve from time zero to the last concentration measured (Clast), calculated by the log/linear trapezoidal method.
The levels of test compound are measured by means of liquid chromatography-mass spectrometry (LC-MS). (Hewlett-Packard 1100MSD Series). The module include a quaternary pump system, vacuum degasser, thermostatted autosampler, thermostatted column compartment, diode array detector and API-ES spray chamber. […]
Extractions procedure: Plasma samples (0.25-0.5 ml) were diluted with water to 1 ml, and 60 pmol (100 μl) internal standard (−)-OSU6241 was added. […] The selective ion (MH^+) was monitored for each Example, and MH^+ 296 for (−)-OSU6241 ((3-[3-(ethylsulfonyl)phenyl]-1-propylpiperidine). […]

[4] = system: Locomotor activity in MK-801 pre-treated rats; assay: Locomotor activity in MK-801 pre-treated rats; conditions: MK-801 0.7 mg/kg i.p. 90 minutes before test compound; 100 μmol/kg; recorded 30-60 minutes after administration

Work on `CCCN1CCC(c2ccc(F)c(C(F)(F)F)c2)CC1` yielded an ED50 ([1]; Rattus norvegicus) of 30 µmol/kg.

With `COc1cccc(C2(O)CCN(C)CC2)c1OC` the “ED50 reduction of amphetamine-induced hyper-locomotion” value [1] was “inactive”.

With `CCCN1CCC(O)(c2cccc(C(F)(F)F)c2F)CC1` [Example 1, 4-[2-FLUORO-3-(TRIFLUOROMETHYL)PHENYL]-1-PROPYLPIPERIDIN-4-OL] the “turnover at 15 minutes” value [2] was 27%.

For `CCN1CCC(O)(c2cccc(C(F)(F)F)c2F)CC1` [Example 3, 4-[2-FLUORO-3-(TRIFLUOROMETHYL)PHENYL]-1-ETHYLPIPERIDIN-4-OL], the “turnover at 15 minutes” value [2] was 8% and the bioavailability ([3]; in vivo) was roughly 80%.

For `CCCN1CCC(O)(c2ccc(F)c(C(F)(F)F)c2)CC1` [Example 8, 4-[4-FLUORO-3-(TRIFLUOROMETHYL)PHENYL]-1-PROPYLPIPERIDIN-4-OL], the “turnover at 15 minutes” value [2] was 29% and the bioavailability ([3]; plasma, oral 12.5 μmol/kg vs i.v. 5 μmol/kg, AUC ratio, read-out: oral bioavailability) was roughly 29%.

In the case of `CCCN1CCC(O)(c2cccc(S(C)(=O)=O)c2)CC1` [drawing 51], the “ED50 reduction of amphetamine-induced hyper-locomotion” value [1] is reported as “inactive”.

In the case of `CCCN1CCC(O)(c2cccc(C(F)(F)F)c2F)CC1` [drawing 55], the “Locomotor activity, MK + example 100 μmol/kg” value (“Locomotor activity” for short) [4] is reported as 17802 ± 6842 (P = 0.09) counts/30 min ± SEM.

For `CCN1CCC(O)(c2cccc(C(F)(F)F)c2F)CC1` [drawing 56], the “Locomotor activity” value [4] was 18307 ± 7375 (P =0.3) counts/30 min ± SEM.

In the case of `CCCN1CCC(O)(c2cccc(Cl)c2Cl)CC1` [drawing 57], the “Locomotor activity” value [4] is reported as 9564 ± 4584 (P =0.16) counts/30 min ± SEM.

With `CCCN1CCC(O)(c2ccc(F)c(C(F)(F)F)c2)CC1` [drawing 58] the “Locomotor activity” value [4] was 7312 ± 4537 (P =0.0005) counts/30 min ± SEM.

In the case of `COCCN1CCC(O)(c2ccc(Cl)c(C(F)(F)F)c2)CC1` [drawing 59], the “Locomotor activity” value [4] is reported as 7407 ± 3282 (P =0.00003) counts/30 min ± SEM.
